{"source": "patent US11883450B1", "about": "“Extract of Agathis robusta as antifungal agent” (KING FAISAL UNIVERSITY, priority 2023, dated 2024)", "key": {"C. albicans": {"tested_on": "C. albicans", "assay": "In vivo topical fungal infection of burn wounds in Wistar rats", "details": "for percentage of fungicidal activity (wound fungal load): FIG. 5", "procedure": "The development of in vivo topical fungal infection was determined according to Zinsou, A. et al., “Development of new dermatological formulations for the treatment of cutaneous candidiasis”, Scientific African (2020):8:e00342, and modified Ray and Wuepper, “Experimental Cutaneous Candidiasis in Rodents: II. Role of the Stratum Corneum Barrier and Serum Complement as a Mediator of a Protective Inflammatory Response”, Archives of Dermatology (1978), Vol. 114(4): 539-43. The experimental protocol was permitted by the Institutional Animal Care and Use Committee of King Faisal University (KFU-REC-2023-JAN-EA000691). All the experiments were executed in harmony with the relevant procedures and regulations of the Ethical Conduct for the Use of Animals in Research at King Faisal University. Wistar rats weighing (220±30 g) were used for the whole experiment. The animals' backs were shaved after anesthesia, and sterilized with 70% ethyl alcohol in water and left to dry. The injury was induced on the shaven back of each rat using a hot copper metal rod. The injury was swabbed with 0.5 mL broth containing […] Colony-Forming Units (CFU) of C. albicans. The essential oil topical preparations were applied once daily, starting from day 3, directly on the infected wound until the wound was completely healed (nearly 20 days). No antibiotic or antifungal preparations were administered to any of the animal groups, and the animals were monitored daily for any wound contamination. The animals' wounds were covered by sterile wound plaster, which is changed every day. […]\nThe animals' infected wounds (lesions) were monitored according to Masoko, et al., “In vivo antifungal effect of Combretum and Terminalia species extracts on cutaneous wound healing in immunosuppressed rats”, Pharm Biol (2010): 48:6:621-32, and Sullivan, et al., “Assessment of wound bioburden development in a rat acute wound model: Quantitative swab versus tissue biopsy”, Wounds (2004): 16: 115-123, using the following parameters: (1) Presence and type of exudate, erythema, swelling, ulceration, and crust formation: The scoring of the lesions regarding the exudate was measured using the following criteria: 0: No exudate, 1: Exudate just visible, 2: Exudate easily visible, 3: Substantial quantity of exudate, 4: Large quantity of exudate; (2) Wound contraction percentage: The lesion diameters were determined in millimeters (mm) vertically and horizontally. The lesion size percentage was calculated using the below equation: Wound contraction percentage=((Wound area day 0-Wound area day X)/Wound area day 0)×100, where X represents the number of days;\n(3) Epithelialization time: The number of days needed for the wound Escher to fade away, leaving no visible wound, was used to determine the epithelialization period. (4) Evaluation of wound fungal load was determined according to Sullivan et al., supra: At the 3rd, 10th, and 15 days, each lesion was gently swabbed by a sterile swab 3 times anticlockwise with mild pressure. […] The plates were incubated for 48 hours at 37° C., and the number of yeasts on each plate was manually counted. […]"}, "Fungi stains": {"tested_on": "Fungi stains", "assay": "Minimum fungicidal concentration (MFC), positive control, strain not stated", "format": "cell-based", "procedure": "Minimum fungicidal concentration (MFC) was determined according to Zinsou et al., “Development of new dermatological formulations for the treatment of cutaneous candidiasis”, Scientific African (2020), 8:e00342. Different final concentrations (0.1 to 1 mg/mL) of the bark essential oils were dissolved in DEMO and added to liquid Sabouraud dextrose broth. From the above fungal stain suspension, 1 mL was added to each essential oil tube. The tubes were incubated at room temperature for three days. Negative and positive controls were made through the addition of an equivalent amount of DMSO and Ketoconazole, respectively. MFC was calculated through the determination of the lowest concentration of the essential oil, which could inhibit the growth of the fungus. Every concentration was repeated 5 times in three different experiments, and the mean and SD of inhibition zones were calculated for each fungal strain. The MIC was determined as the lowest concentration of essential oil that inhibited fungal growth after 48 h."}}, "data": [{"smiles": "CC(=O)N1CCN(c2ccc(OCC3COC(Cn4ccnc4)(c4ccc(Cl)cc4Cl)O3)cc2)CC1", "note": "(stereo not drawn) [Ketoconazole]", "values": [{"measurement": "reduction of wound exudate related to the non-treatment lesions", "setting": "C. albicans; AUC of exudate score, FIG. 2B, topical once daily from day 3", "result": 58, "unit": "%"}, {"measurement": "reduction of epithelization time related to the untreated infected wound", "setting": "C. albicans; FIG. 4", "result": 42, "unit": "%"}, {"measurement": "wound contraction percentage", "setting": "C. albicans; by day 21, FIG. 3", "result": 100, "unit": "%"}, {"measurement": "percentage of fungicidal activity (wound fungal load)", "setting": "C. albicans; day 5, related to the untreated-infected wound", "result": 45.85, "unit": "%"}, {"measurement": "percentage of fungicidal activity (wound fungal load)", "setting": "C. albicans; day 15, related to the untreated-infected wound", "result": 98.58, "unit": "%"}, {"measurement": "MFC", "setting": "Fungi stains", "result": 0.037, "unit": "µg/mL"}]}]}
